# Source: patent US20080076664A1, “Fungicidal Compositions” (priority 2004, published 2008)
# Values joined by “and” are separate entries in the source; they are usually repeats but may differ in a detail not shown here. Equal entries are not always repeated.
# Experiments:
# [1] = test system: Alternaria solani; experiment: Fungal growth assay, control of Alternaria solani (Example B-4 a); format: cell-based
# Excerpt: (§1) The action to be expected E for a given active ingredient combination obeys the so-called COLBY formula and can be calculated as follows (COLBY, S. R. “Calculating synergistic and antagonistic responses of herbicide combination”. Weeds, Vol. 15, pages 20-22; 1967):
# (§2) According to COLBY, the expected (additive) action of active ingredients A)+B) using p+q ppm of active ingredient is
# (§3) If the action actually observed (O) is greater than the expected action (E), then the action of the combination is super-additive, i.e. there is a synergistic effect. In mathematical terms the synergism factor SF corresponds to O/E. In the agricultural practice an SF of ≧1.2 indicates significant improvement over the purely complementary addition of activities (expected activity), while an SF of ≦0.9 in the practical application routine signals a loss of activity compared to the expected activity.
# (§4) Conidia—harvested from a freshly grown colony—of the fungus were directly mixed into nutrient broth (PDB potato dextrose broth). After placing a (DMSO) solution of the test compounds into a microtiter plate (96-well format) the nutrient broth containing the fungal spores was added. […] The fungicide interactions in the combinations are calculated according to COLBY method.
# [2] = test system: Leptosphaeria nodorum; experiment: Fungal growth assay, control of Leptosphaeria nodorum (Example B-8); format: cell-based
# Excerpt: as §1, §2, §3
# Action Against Leptosphaeria nodorum (Glume Blotch)—Fungal Growth Assay
# as §4, with “Conidia of” for “Conidia—harvested from a freshly grown colony—of”, “fungus from cryogenic storage” for “fungus”
# [3] = component B) alone, 0.022 ppm [mg/L]
# [4] = component B) alone, 0.067 ppm [mg/L]
# [5] = component B) alone, 0.002 ppm [mg/L]
# [6] = component B) alone, 0.007 ppm [mg/L]
# [7] = component B) alone, 0.600 ppm [mg/L]
# [8] = Cpd Ia alone, 0.0001 ppm [mg/L]
# [9] = Cpd Ia alone, 0.0003 ppm [mg/L]
# [10] = Cpd Ia alone, 0.0074 ppm [mg/L]
Structure (SMILES),"Observed control in % (% Cobs) [1, 3] [%]","Observed control in % (% Cobs) [1, 4] [%]","Observed control in % (% Cobs) [2, 5] [%]","Observed control in % (% Cobs) [2, 6] [%]","Observed control in % (% Cobs) [1, 5] [%]","Observed control in % (% Cobs) [1, 7] [%]","Observed control in % (% Cobs) [2, 3] [%]","Observed control in % (% Cobs) [2, 4] [%]","Observed control in % (% Cobs) [1, 6] [%]",other results
CO/C=C(/C(=O)OC)c1ccccc1Oc1cc(Oc2ccccc2C#N)ncn1 [Azoxystrobin],0,31,5,14,–,–,–,–,–,–
"N#Cc1c(Cl)c(Cl)c(Cl)c(C#N)c1Cl [Chlorotalonil, Chlorothalonil]",–,–,1,0,9,6,0,6,–,–
Cn1cc(C(=O)Nc2ccccc2-c2ccc(C#CC(C)(C)C)cc2)c(C(F)F)n1 [Cpd Ia],–,–,–,–,–,–,–,–,–,"Observed control in % (% Cobs) [1, 8]: 6% and 0%; Observed control in % (% Cobs) [1, 9]: 6% and 0% and 4%; Observed control in % (% Cobs) ([1]; Cpd Ia alone, 0.0008 ppm [mg/L]): 0%; Observed control in % (% Cobs) [1, 10]: 40% and 46% and 27%; Observed control in % (% Cobs) ([1]; Cpd Ia alone, 0.0667 ppm [mg/L]): 50% and 60%; Observed control in % (% Cobs) [2, 8]: 0% and 2%; Observed control in % (% Cobs) [2, 9]: 0%; Observed control in % (% Cobs) ([2]; Cpd Ia alone, 0.0025 ppm [mg/L]): 0%; Observed control in % (% Cobs) [2, 10]: 0%; Observed control in % (% Cobs) ([2]; Cpd Ia alone, 0.0222 ppm [mg/L]): 9% and 0% and 5% and 6%; Observed control in % (% Cobs) ([2]; Cpd Ia alone, 0.2000 ppm [mg/L]): 32% and 30%"
CC(C1CC1)C(O)(Cn1cncn1)c1ccc(Cl)cc1 (stereo not drawn) [Cyproconazole],–,–,3,0,3,15,–,4,0,–
Cc1cc(C2CC2)nc(Nc2ccccc2)n1 [Cyprodinil],0,30,–,–,3,–,–,–,0,–
CC(Cc1ccc(C(C)(C)C)cc1)CN1CCCCC1 (stereo not drawn) [Fenpropidin],–,0,–,4,0,0,0,–,–,–
N#Cc1c[nH]cc1-c1cccc2c1OC(F)(F)O2 [Fludioxonil],0,25,7,–,0,–,–,9,0,–
CCCC1COC(Cn2cncn2)(c2ccc(Cl)cc2Cl)O1 (stereo not drawn) [Propiconazole],–,–,12,–,–,–,11,–,0,–
